According to patent US20250034135A1, “ANTI-APOPTOTIC PROTEIN BCL-2 INHIBITOR, PHARMACEUTICAL COMPOSITION AND USES THEREOF” (HANGZHOU HEALZEN THERAPEUTICS CO., LTD., priority 2021, published 2025):
pIC50: −log10 of the molar value.

target: BCL2 (Homo sapiens (Human), UniProt P10415); assay: Molecular level activity test of anti-apoptotic protein BCL2 (HTRF, binding to Bim peptide); conditions: HTRF, binding of BCL2 to Bim peptide; read-out: BCL2 nM (inhibitory activity, IC50)
How it was run: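 Disruption of the BCL2/Bim peptide interaction is detected by homogeneous time-resolved fluorescence, using anti-His and streptavidin-XL665 reagents against His-tagged protein and biotin-tagged peptide. Compound exposure lasts 1 h before reagent addition; plates then sit 4 h at room temperature.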

Chain of BCL2 (P10415 whole entry): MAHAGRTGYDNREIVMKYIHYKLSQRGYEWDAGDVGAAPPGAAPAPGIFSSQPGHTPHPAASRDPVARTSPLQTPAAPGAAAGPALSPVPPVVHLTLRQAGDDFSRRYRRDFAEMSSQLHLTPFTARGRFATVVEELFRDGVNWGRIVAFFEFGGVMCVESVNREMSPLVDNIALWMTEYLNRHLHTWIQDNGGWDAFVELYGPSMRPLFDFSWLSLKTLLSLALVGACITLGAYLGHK

pIC50, > 8.00:
CC(C)c1ccccc1[C@@H]1CCCN1C1CC2(CCN(c3cc(N4CCOc5nc6[nH]ccc6cc54)c(C(=O)NS(=O)(=O)c4cc([N+](=O)[O-])c(NC[C@H]5CC[C@](C)(O)CC5)c5[nH]cnc45)cc3F)CC2)C1 [compound 082, 2-(2,3-dihydropyrrolo[3′,2′:5,6]pyridino[2,3-b][1,4]oxazin-1 (6H)-yl)-5-fluoro-N-((7-((((1r,4r)-4-hydroxy-4-methylcyclohexyl)methyl)amino)-6-nitro-1H-benzo[d]imidazol-4-yl)sulfonyl)-4-(2-((S)-2-(2-isopropylphenyl)pyrrolidin-1-yl)-7-azaspiro[3.5]non-7-yl)benzamide]
COc1ccc(CN2CCN(C3CC4(CCN(c5ccc(C(=O)NS(=O)(=O)c6cc([N+](=O)[O-])c(NCC7CCOCC7)c7[nH]cnc67)c(N6CCCOc7nc8[nH]ccc8cc76)c5)CC4)C3)C(c3ccccc3C(C)C)C2)cc1 (stereo not drawn) [compound 092, 2-(3,4-dihydro-2H-pyrrolo[3′,2′:5,6]pyridino[2,3-b][1,4]oxazacyclohept-1 (7H)-yl)-4-(2-(2-(2-isopropylphenyl)-4-(4-methoxybenzyl)piperazin-1-yl)-7-azaspiro[3.5]non-7-yl)-N-((6-nitro-7-(((tetrahydro-2H-pyran-4-yl)methyl)amino)-1H benzo[d]imidazol-4-yl)sulfonyl)benzamide]
COc1ccc(CN2CCN(C3CC4(CCN(c5cc(Oc6cnc7[nH]ccc7c6)c(C(=O)NS(=O)(=O)c6cc([N+](=O)[O-])c(NCC7(F)CCOCC7)c7c6OCO7)cc5F)CC4)C3)[C@H](c3ccccc3C(C)C)C2)cc1 [compound 106, (R)-2-((1H-pyrrolo[2,3-b]pyrid-5-yl)oxy)-5-fluoro-N-((7-(((4-fluorotetrahydro-2H-pyran-4-yl)methyl)amino)-6-nitrobenzo[d][1,3]dioxocyclopent-4-yl)sulfonyl)-4-(2-(2-(2-isopropylphenyl)-4-(4-methoxybenzyl)piperazin-1-yl)-7-azaspiro[3.5]non-7-yl)benzamide]
CC(C)c1ccccc1[C@@H]1CCCN1C1CC2(CCN(c3ccc(C(=O)NS(=O)(=O)c4cc([N+](=O)[O-])c(NC[C@H]5CC[C@](C)(O)CC5)c5[nH]cnc45)c(Oc4cnc5[nH]cc(F)c5c4)c3)CC2)C1 [compound 011, 2-((3-fluoro-1H-pyrrolo[2,3-b]pyrid-5-yl)oxy)-N-((7-((((1r,4r)-4-hydroxy-4-methylcyclohexyl)methyl)amino)-6-nitro-1H-benzo[d]imidazol-4-yl)sulfonyl)-4-(2-((S)-2-(2-isopropylphenyl)pyrrolidin-1-yl)-7-azaspiro[3.5]non-7-yl)benzamide]
CC(C)c1ccccc1[C@@H]1CN(Cc2ccc(F)c(F)c2)CCN1C1CC2(CCN(c3ccc(C(=O)NS(=O)(=O)c4cc([N+](=O)[O-])c(NC[C@H]5CC[C@](C)(O)CC5)c5c4OCO5)c(Oc4cnc5[nH]ccc5c4)c3)CC2)C1 [compound 176, 2-((1H-pyrrolo[2,3-b]pyrid-5-yl)oxy)-4-(2-((R)-4-(3,4-difluorobenzyl)-2-(2-isopropylphenyl)piperazin-1-yl)-7-azaspiro[3.5]non-7-yl)-N-((7-((((1r, 4r)-4-hydroxy-4-methylcyclohexyl)methyl)amino)-6-nitrobenzo[d][1,3]dioxocyclopent-4-yl)sulfonyl)benzamide]
CC(C)c1ccccc1[C@@H]1CCCN1C1CC2(CCN(c3cc(Oc4cnc5[nH]ccc5c4)c(C(=O)NS(=O)(=O)c4cc([N+](=O)[O-])c(NCC5(F)CCN(C6CCOCC6)CC5)c5[nH]cnc45)cc3F)CC2)C1 [compound 024, (S)-2-((1H-pyrrolo[2,3-b]pyrid-5-yl)oxy)-5-fluoro-N-((7-(((4-fluoro-1-(tetrahydro-2H-pyran-4-yl)piperid-4-yl)methyl)amino)-6-nitro-1H-benzo[d]imidazol-4-yl)sulfonyl)-4-(2-(2-(2-isopropylphenyl)pyrrolidin-1-yl)-7-azaspiro[3.5]non-7-yl)benzamide]
